Source: ChEMBL document CHEMBL1201862, “PubChem BioAssay data set” (2004)
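The compound was tested at five concentrations on cells cultured in 96-well plates, with a 48-hour exposure period. Abbreviation: GI50, concentration required for 50% inhibition of growth.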 Calls of active or inactive are those of the source. Cut-off read from the data, not from the text of the source: active = GI50 up to about 1.1 µM and inactive = higher.

Columns and labels:
Assay in all cases: NCI tumour cell line growth inhibition, 48 h
NCI-H460 = system: NCI-H460
SNB-78 = system: SNB-78
IGROV-1 = system: IGROV-1
M14 = system: M14
HCC 2998 = system: HCC 2998
OVCAR-3 = system: OVCAR-3
OVCAR-8 = system: OVCAR-8
UACC-257 = system: UACC-257
DMS-273 = system: DMS-273
SR = system: SR
SF-268 = system: SF-268
XF498 = system: XF498
UO-31 = system: UO-31
KM12 = system: KM12
DLD-1 = system: DLD-1
EKVX = system: EKVX
U-251 = system: U-251
COLO 205 = system: COLO 205
SN12C = system: SN12C
KM-20L2 = system: KM-20L2
HL-60 = system: HL-60
CAKI-1 = system: CAKI-1
ACHN = system: ACHN
NCI-H23 = system: NCI-H23
SNB-75 = system: SNB-75
A498 = system: A498
HCT-15 = system: HCT-15
SK-OV-3 = system: SK-OV-3
786-0 = system: 786-0
LOX IMVI = system: LOX IMVI
Malme-3M = system: Malme-3M
OVCAR-5 = system: OVCAR-5
SNB-19 = system: SNB-19
A549 = system: A549
TK-10 = system: TK-10
RXF 393 = system: RXF 393
SK-MEL-2 = system: SK-MEL-2
HCT-116 = system: HCT-116
SW-620 = system: SW-620
CCRF-CEM = system: CCRF-CEM
NCI-H226 = system: NCI-H226
MOLT-4 = system: MOLT-4
DMS-114 = system: DMS-114
NCI-H522 = system: NCI-H522
LXFL 529 = system: LXFL 529
HOP-18 = system: HOP-18
K562 = system: K562
HOP-92 = system: HOP-92
SF-539 = system: SF-539
SF-295 = system: SF-295
SK-MEL-5 = system: SK-MEL-5
UACC-62 = system: UACC-62
OVCAR-4 = system: OVCAR-4
HT-29 = system: HT-29
HOP-62 = system: HOP-62
M19-MEL = system: M19-MEL
SK-MEL-28 = system: SK-MEL-28

SMILES: CCSC1(SCC)CC(Cc2ccc(OC)cc2)N(/C=N/C(C)(C)C)C1 (configuration not stated)
- GI50 (NCI-H460): 8.51 µM (inactive)
- GI50 (SNB-78): 31.8 µM (inactive)
- GI50 (IGROV-1): 37.8 µM (inactive)
- GI50 (M14): 14.7 µM (inactive)
- GI50 (HCC 2998): 17 µM (inactive)
- GI50 (OVCAR-3): 27.8 µM (inactive)
- GI50 (OVCAR-8): 28.2 µM (inactive)
- GI50 (UACC-257): 20.2 µM (inactive)
- GI50 (DMS-273): 37.4 µM (inactive)
- GI50 (SR): 10.6 µM (inactive)
- GI50 (SF-268): 61 µM (inactive)
- GI50 (XF498): 18.1 µM (inactive)
- GI50 (UO-31): 17.3 µM (inactive)
- GI50 (KM12): 25.9 µM (inactive)
- GI50 (DLD-1): 33.5 µM (inactive)
- GI50 (EKVX): 27 µM (inactive)
- GI50 (U-251): 19.1 µM (inactive)
- GI50 (COLO 205): 21 µM (inactive)
- GI50 (SN12C): 25 µM (inactive)
- GI50 (KM-20L2): 12.9 µM (inactive)
- GI50 (HL-60): 10.6 µM (inactive)
- GI50 (CAKI-1): 21 µM (inactive)
- GI50 (ACHN): 32.5 µM (inactive)
- GI50 (NCI-H23): 18.7 µM (inactive)
- GI50 (SNB-75): 26.2 µM (inactive)
- GI50 (A498): 33.6 µM (inactive)
- GI50 (HCT-15): 25.8 µM
- GI50 (SK-OV-3): 22.8 µM (inactive)
- GI50 (786-0): 32.1 µM (inactive)
- GI50 (LOX IMVI): 15.1 µM (inactive)
- GI50 (Malme-3M): 20.1 µM (inactive)
- GI50 (OVCAR-5): 11.5 µM (inactive)
- GI50 (SNB-19): 38.7 µM (inactive)
- GI50 (A549): 36.9 µM (inactive)
- GI50 (TK-10): 17.3 µM (inactive)
- GI50 (RXF 393): 11.5 µM (inactive)
- GI50 (SK-MEL-2): 33.1 µM (inactive)
- GI50 (HCT-116): 20.9 µM (inactive)
- GI50 (SW-620): 15.1 µM (inactive)
- GI50 (CCRF-CEM): 15.2 µM (inactive)
- GI50 (NCI-H226): 27.6 µM (inactive)
- GI50 (MOLT-4): 14.7 µM (inactive)
- GI50 (DMS-114): 20.1 µM (inactive)
- GI50 (NCI-H522): 15 µM (inactive)
- GI50 (LXFL 529): 25.3 µM (inactive)
- GI50 (HOP-18): 41.1 µM (inactive)
- GI50 (K562): 17.8 µM (inactive)
- GI50 (HOP-92): 0.321 µM (active)
- GI50 (SF-539): 54.5 µM (inactive)
- GI50 (SF-295): 15.1 µM (inactive)
- GI50 (SK-MEL-5): 16.4 µM (inactive)
- GI50 (UACC-62): 19.1 µM (inactive)
- GI50 (OVCAR-4): 29.7 µM (inactive)
- GI50 (HT-29): 10.7 µM (inactive)
- GI50 (HOP-62): 56.9 µM (inactive)
- GI50 (M19-MEL): 29 µM (inactive)
- GI50 (SK-MEL-28): 35.8 µM (inactive)
